# Measured values as given in US9932338B2, “Compounds having muscarinic receptor antagonist and BETA2 adrenergic receptor agonist activity” (CHIESI FARMACEUTICI S.P.A., priority 2015, dated 2018).
# Where two headings read alike, the source gives them in different places.
# Tests used:
# Human β2 adrenoceptor = target: T1, Human β2 adrenoceptor (Homo sapiens, UniProt P07550); test: β2 adrenoceptor radioligand binding assay; conditions: human β2 adrenoceptor membranes, 125-I cyanopindolol, Ki from IC50 by Cheng and Prusoff
# T1 construct: purchased Perkin Elmer
# Description: Example. β2 Adrenoceptor Radioligand Binding Assay
# Human β2 adrenoceptor membranes (7.5 ug/well) from Perkin Elmer were incubated with 0.3 nM 125-I Cyanopindolol with or without test compounds, or a saturating concentration of s-propranolol (2 μM) for the determination of non-specific binding. The assay was carried out in 96-well polypropylene plates in a volume of 200 ul. The assay buffer used was 25 mM HEPES, 0.5% BSA (w/v), 1 mM EDTA, 0.02% ascorbic acid (v/v), (pH 7.4). The final assay concentration of DMSO was 0.5% (v/v). The plates were sealed and incubated for 1 hour at room temperature on an orbital shaker (slow speed). Membranes were harvested onto 96-well unifilter GF/C filter plates pre-treated with 0.5% polyethyleneimine (v/v), using a filter manifold, washed six times with 200 μl of wash buffer containing 10 mM HEPES and 500 mM NaCl. The plates were dried before addition of 50 μl of microscint-0, sealed then read in a Trilux Microbeta scintillation counter. IC50 values are determined from competition curves using a non-linear curve fitting program. Ki values were calculated from IC50 values by the Cheng and Prusoff equation.
# Human M3 receptor = target: T2, Human M3 receptor (Homo sapiens, UniProt P20309); test: M3 receptor radioligand binding assay; conditions: human M3 receptor membranes, [N-methyl-3H] scopolamine methyl chloride, Ki from IC50 by Cheng and Prusoff
# T2 construct: purchased Perkin Elmer
# Description: Example. M3 Receptor Radioligand Binding Assay
# The assay was carried out in 96-well polypropylene plates in a volume of 250 ul. […] The final assay concentration of DMSO was 0.5% (v/v). The plates were sealed and incubated for 2 hours at room temperature on an orbital shaker (slow speed). Membranes were harvested onto 96-well unifilter GF/C filter plates pre-treated with 0.5% polyethyleneimine (v/v), using a filter manifold, washed four times with 200 μl of assay buffer. The plates were dried before addition of 50 μl of microscint-0, sealed then read in a Trilux Microbeta scintillation counter. IC50 values are determined from competition curves using a non-linear curve fitting program. Ki values were calculated from IC50 values by the Cheng and Prusoff equation.
# [1] = read-out: B2 binding affinity (Ki class)
# [2] = read-out: M3 binding affinity (Ki class)
# T2 sequence (P20309 whole entry): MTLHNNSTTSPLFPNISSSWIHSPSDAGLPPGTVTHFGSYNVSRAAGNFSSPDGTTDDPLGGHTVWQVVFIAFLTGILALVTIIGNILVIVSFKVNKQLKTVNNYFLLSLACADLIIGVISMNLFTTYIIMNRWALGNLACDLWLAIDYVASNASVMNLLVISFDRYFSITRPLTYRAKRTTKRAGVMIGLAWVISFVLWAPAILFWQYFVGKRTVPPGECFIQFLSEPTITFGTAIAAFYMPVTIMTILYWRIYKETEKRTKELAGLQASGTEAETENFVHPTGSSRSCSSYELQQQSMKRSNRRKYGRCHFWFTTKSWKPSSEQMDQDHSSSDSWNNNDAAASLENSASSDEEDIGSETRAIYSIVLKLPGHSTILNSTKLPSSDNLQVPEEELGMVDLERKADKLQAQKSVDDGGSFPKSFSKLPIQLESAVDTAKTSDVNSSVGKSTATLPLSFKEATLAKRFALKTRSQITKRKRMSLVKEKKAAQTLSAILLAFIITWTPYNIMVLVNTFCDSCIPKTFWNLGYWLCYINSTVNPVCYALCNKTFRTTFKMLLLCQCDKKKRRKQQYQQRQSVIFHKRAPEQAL
# T1 sequence (P07550 whole entry): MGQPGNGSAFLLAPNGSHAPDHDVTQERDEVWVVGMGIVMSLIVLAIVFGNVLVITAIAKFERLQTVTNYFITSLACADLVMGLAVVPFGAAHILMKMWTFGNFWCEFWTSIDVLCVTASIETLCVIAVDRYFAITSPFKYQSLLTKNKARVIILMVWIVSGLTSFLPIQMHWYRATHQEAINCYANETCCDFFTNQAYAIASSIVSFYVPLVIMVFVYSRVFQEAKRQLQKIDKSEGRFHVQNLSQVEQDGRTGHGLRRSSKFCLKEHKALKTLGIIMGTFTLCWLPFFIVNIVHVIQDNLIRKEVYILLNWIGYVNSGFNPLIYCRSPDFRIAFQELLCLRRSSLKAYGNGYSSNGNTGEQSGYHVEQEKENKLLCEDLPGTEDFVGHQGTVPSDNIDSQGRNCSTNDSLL
Compound,Ki (Human β2 adrenoceptor; [1]) [nM],Ki (Human M3 receptor; [2]) [nM],Ki (Human β2 adrenoceptor; B2 binding affinity (Ki class)) [nM],Ki (Human M3 receptor; M3 binding affinity (Ki class)) [nM]
"Cc1cccc2c1CCC2(NC(=O)c1cccc(OCCCCCNC[C@H](O)c2ccc(O)c3[nH]c(=O)ccc23)c1)C(=O)O[C@H]1CN2CCC1CC2 (single isomer, unassigned; diastereoisomer 1) [Compound 5A]",1 to 10,1 to 10,–,–
"Cc1cccc2c1CCC2(NC(=O)c1cccc(OCCCCCNC[C@H](O)c2ccc(O)c3[nH]c(=O)ccc23)c1)C(=O)O[C@H]1CN2CCC1CC2 (single isomer, unassigned; diastereoisomer 2) [Compound 5B]",< 1,< 1,–,–
"O=C(NCCCCNC[C@H](O)c1ccc(O)c2[nH]c(=O)ccc12)c1ccc(CNC2(C(=O)OCC3CCN(Cc4ccccc4)CC3)CCc3ccccc32)s1 (single isomer, unassigned; stereoisomer 1) [Compound 22]",1 to 10,< 1,–,–
"O=C(NCCCCNC[C@H](O)c1ccc(O)c2[nH]c(=O)ccc12)c1ccc(CNC2(C(=O)OC3CCN(Cc4ccccc4)CC3)CCc3ccccc32)s1 (single isomer, unassigned; stereoisomer 1) [Compound 24]",> 10,< 1,–,–
"O=C(NCCCCNC[C@H](O)c1ccc(O)c2[nH]c(=O)ccc12)c1ccc(CNC2(C(=O)O[C@@H]3CCCN(Cc4ccccc4)C3)CCc3ccccc32)s1 (single isomer, unassigned; stereoisomer 1) [Compound 25]",> 10,< 1,–,–
"O=C(NCCCCNC[C@H](O)c1ccc(O)c2[nH]c(=O)ccc12)c1ccc(CNC2(C(=O)O[C@@H]3CCN(Cc4ccccc4)C3)CCc3ccccc32)s1 (single isomer, unassigned; stereoisomer 1) [Compound 26]",> 10,> 10,–,–
"O=C(NCCCCNC[C@H](O)c1ccc(O)c2[nH]c(=O)ccc12)c1ccc(CNC2(C(=O)OCC3CCN(Cc4ccccc4)CC3)CCc3ccccc32)s1 (single isomer, unassigned; stereoisomer 2) [Compound 23]",1 to 10,< 1,–,–
"O=C(NCCCCNC[C@H](O)c1ccc(O)c2[nH]c(=O)ccc12)c1ccc(CNC2(C(=O)OC3CCN(Cc4ccccc4)CC3)CCc3ccccc32)s1 (single isomer, unassigned; stereoisomer 2) [Compound 27]",> 10,< 1,–,–
"O=C(NCCCCNC[C@H](O)c1ccc(O)c2[nH]c(=O)ccc12)c1ccc(CNC2(C(=O)O[C@@H]3CCN(Cc4ccccc4)C3)CCc3ccccc32)s1 (single isomer, unassigned; stereoisomer 2) [Compound 28]",1 to 10,< 1,–,–
"O=C(NCCCCNC[C@H](O)c1ccc(O)c2[nH]c(=O)ccc12)c1cccc(CNC2(C(=O)O[C@H]3CN4CCC3CC4)CCc3ccccc32)c1 (stereo partly drawn) [Compound 1, (R)-quinuclidin-3-yl 1-((3-((4-(((R)-2-hydroxy-2-(8-hydroxy-2-oxo-1,2-dihydroquinolin-5-yl)ethyl)amino)butyl)carbamoyl)benzyl)amino)-2,3-dihydro-1H-indene-1-carboxylate]",< 1,< 1,–,–
"O=C(NC1(C(=O)O[C@H]2CN3CCC2CC3)CCc2ccccc21)c1cccc(OCCCCCNC[C@H](O)c2ccc(O)c3[nH]c(=O)ccc23)c1 (stereo partly drawn) [Compound 2, (R)-quinuclidin-3-yl 1-(3-((5-(((R)-2-hydroxy-2-(8-hydroxy-2-oxo-1,2-dihydroquinolin-5-yl)ethyl)amino)pentyl)oxy)benzamido)-2,3-dihydro-1H-indene-1-carboxylate]",–,–,< 1,< 1
"O=C(O[C@H]1CN2CCC1CC2)C1(NCc2cccc(OCCCCCNC[C@H](O)c3ccc(O)c4[nH]c(=O)ccc34)c2)CCc2ccccc21 (stereo partly drawn) [Compound 3, (R)-quinuclidin-3-yl 1-((3-((5-(((R)-2-hydroxy-2-(8-hydroxy-2-oxo-1,2-dihydroquinolin-5-yl)ethyl)amino)pentyl)oxy)benzyl)amino)-2,3-dihydro-1H-indene-1-carboxylate]",< 1,< 1,–,–
"O=C(NCCCCNC[C@H](O)c1ccc(O)c2[nH]c(=O)ccc12)c1ccc(CNC2(C(=O)O[C@H]3CN4CCC3CC4)CCc3ccccc32)s1 (stereo partly drawn) [Compound 4, (R)-quinuclidin-3-yl 1-(((5-((4-(((R)-2-hydroxy-2-(8-hydroxy-2-oxo-1,2-dihydroquinolin-5-yl)ethyl)amino)butyl)carbamoyl)thiophen-2-yl)methyl)amino)-2,3-dihydro-1H-indene-1-carboxylate]",< 1,< 1,–,–
"Cc1cccc2c1CCC2(NCc1cccc(C(=O)NCCCCNC[C@H](O)c2ccc(O)c3[nH]c(=O)ccc23)c1)C(=O)O[C@H]1CN2CCC1CC2 (stereo partly drawn) [Compound 5, (R)-quinuclidin-3-yl 1-((3-((4-(((R)-2-hydroxy-2-(8-hydroxy-2-oxo-1,2-dihydroquinolin-5-yl)ethyl)amino)butyl)carbamoyl)benzyl)amino)-4-methyl-2,3-dihydro-1H-indene-1-carboxylate]",< 1,< 1,–,–
"O=C(NC1(C(=O)O[C@H]2CN3CCC2CC3)CCc2ccccc21)c1cccc(OCCCCNC[C@H](O)c2ccc(O)c3[nH]c(=O)ccc23)c1 (stereo partly drawn) [Compound 6, (R)-quinuclidin-3-yl 1-(3-(4-(((R)-2-hydroxy-2-(8-hydroxy-2-oxo-1,2-dihydroquinolin-5-yl)ethyl)amino)butoxy)benzamido)-2,3-dihydro-1H-indene-1-carboxylate]",1 to 10,< 1,–,–
"CC(C)N1CCC(COC(=O)C2(NC(=O)c3cccc(OCCCCCCNC[C@H](O)c4ccc(O)c5[nH]c(=O)ccc45)c3)CCc3ccccc32)CC1 (stereo partly drawn) [Compound 7, (1-isopropylpiperidin-4-yl)methyl 1-(3-((6-(((R)-2-hydroxy-2-(8-hydroxy-2-oxo-1,2-dihydroquinolin-5-yl)ethyl)amino)hexyl)oxy)benzamido)-2,3-dihydro-1H-indene-1-carboxylate]",> 10,< 1,–,–
"O=C(NCCCCNC[C@H](O)c1ccc(O)c2[nH]c(=O)ccc12)c1cccc(C(=O)NC2(C(=O)O[C@H]3CN4CCC3CC4)CCc3ccccc32)c1 (stereo partly drawn) [Compound 8, (R)-quinuclidin-3-yl 1-(3-((4-(((R)-2-hydroxy-2-(8-hydroxy-2-oxo-1,2-dihydroquinolin-5-yl)ethyl)amino)butyl)carbamoyl)benzamido)-2,3-dihydro-1H-indene-1-carboxylate]",> 10,1 to 10,–,–
"O=C(NC1(C(=O)OCC2CCN(Cc3ccccc3)CC2)CCc2ccccc21)c1cccc(OCCCCCCNC[C@H](O)c2ccc(O)c3[nH]c(=O)ccc23)c1 (stereo partly drawn) [Compound 9, (1-benzylpiperidin-4-yl)methyl 1-(3-((6-(((R)-2-hydroxy-2-(8-hydroxy-2-oxo-1,2-dihydroquinolin-5-yl)ethyl)amino)hexyl)oxy)benzamido)-2,3-dihydro-1H-indene-1-carboxylate]",> 10,< 1,–,–
"O=C(NC1(C(=O)OCC2CCN(Cc3ccco3)CC2)CCc2ccccc21)c1cccc(OCCCCCCNC[C@H](O)c2ccc(O)c3[nH]c(=O)ccc23)c1 (stereo partly drawn) [Compound 10, (1-(furan-2-ylmethyl)piperidin-4-yl)methyl 1-(3-((6-(((R)-2-hydroxy-2-(8-hydroxy-2-oxo-1,2-dihydroquinolin-5-yl)ethyl)amino)hexyl)oxy)benzamido)-2,3-dihydro-1H-indene-1-carboxylate]",> 10,1 to 10,–,–
